In BindingDB's records for doi:10.1021/jm00012a012 (Wellcome Research Laboratories, 1995) one finds IC50 data, which are given here for 8 compounds.

A short description of this experiment: Activity against adenosine diphosphate (ADP) induced platelet aggregation.

By IC50 is commonly meant the point on the concentration scale where inhibition reaches its midpoint. A higher IC50 goes with weaker potency in that assay. As to `CCCCCCCCOc1c(OC)cc(C(=O)OCCCC[N+](C)(C)C)cc1OC` [[4-(3,5-Dimethoxy-4-octyloxy-benzoyloxy)-butyl]-trimethyl-ammonium; iodide], half-maximal inhibition (IC50) was put at 13.8 µM.
In the case of `CCCCCCCCCCOc1c(OC)cc(C(=O)OCC[N+](C)(C)C)cc1OC` [[2-(4-Decyloxy-3,5-dimethoxy-benzoyloxy)-ethyl]-trimethyl-ammonium; iodide], the IC50 was determined as 2 µM. This IC50 lies about 6.9-fold lower than the previous one.
With `CCCCCCCCCCCCCCCCOc1c(OC)cc(C(=O)OCCCC[N+](C)(C)C)cc1OC` [[4-(4-Hexadecyloxy-3,5-dimethoxy-benzoyloxy)-butyl]-trimethyl-ammonium; iodide], the IC50 was 2.9 µM.
`CCCCCCOc1c(OC)cc(CCCCc2scnc2C)cc1OC` [5-[4-(4-Hexyloxy-3,5-dimethoxy-phenyl)-butyl]-4-methyl-thiazole] yielded an IC50 of 13.5 µM.
As for `CCCCCCOc1c(OC)cc(C(=O)OCc2ccccc2C[N+](C)(C)C)cc1OC` [[2-(4-Hexyloxy-3,5-dimethoxy-benzoyloxymethyl)-benzyl]-trimethyl-ammonium; iodide], the figure is 16 µM.
As for `CCCCCCOc1ccc(C(=O)OCCCC[N+](C)(C)C)cc1` [[4-(4-Hexyloxy-benzoyloxy)-butyl]-trimethyl-ammonium; iodide], the figure is 22.5 µM.
As for `CCCCCCOc1c(Cl)cc(C(=O)OCCCC[N+](C)(C)C)cc1OC` [[4-(3-Chloro-4-hexyloxy-5-methoxy-benzoyloxy)-butyl]-trimethyl-ammonium; iodide], the figure is 9.6 µM; as for `CCCCCCOc1c(C)cc(C(=O)OCCCC[N+](C)(C)C)cc1C` [[4-(4-Hexyloxy-3,5-dimethyl-benzoyloxy)-butyl]-trimethyl-ammonium; iodide], 12 µM.
